Each molecule was assayed against human Cav2.2 (Homo sapiens, UniProt Q00975) (assay: Assessment of calcium channel activity using FLIPR (Ca2+ influx in IMR32 cells)). Conditions: IMR32 cells endogenously expressing human Cav2.2; 60 minute pre-incubation; 2 μM nifedipine; depolarized with 80 mM KCl, 5 mM CaCl2.
Format: cell-based
Description: (i) In Vitro Methods—Assessment of Calcium Channel Activity Using FLIPR:
The IMR32 cells were maintained in MEM media containing 10% (v/v) FBS, 1% (v/v) antibiotic/antimitotic, 1% (v/v) sodium pyruvate and 1% (v/v) MEM NEAA. Following dissociation in 0.05% (v/v) trypsin/EDTA, cells were seeded into black 1×96-well plates (Corning Cellbind) at a density of 1-1.2×10^5 cells/well and incubated in the maintenance media above for 48 hours at 37° C. […] After dye loading and a subsequent 60 minute pre-incubation with compounds (full log dilutions from 10 μM to 0.1 nM) in the presence of 1.3 mM CaCl2 and 2 μM nifedipine to block endogenous L-type channels, the external Ca^2+ concentration was increased to 5 mM CaCl2 and the cells concomitantly depolarized with 80 mM KCl to assay channel activity. To determine the IC50 values, the percent inhibition of the compound at each concentration was determined relative to the activity in the absence of inhibitor, and data was fitted using non-linear regression sigmoidal dose response curve analysis with GraphPad Prism®.

Sequence of human Cav2.2 (Q00975 whole entry): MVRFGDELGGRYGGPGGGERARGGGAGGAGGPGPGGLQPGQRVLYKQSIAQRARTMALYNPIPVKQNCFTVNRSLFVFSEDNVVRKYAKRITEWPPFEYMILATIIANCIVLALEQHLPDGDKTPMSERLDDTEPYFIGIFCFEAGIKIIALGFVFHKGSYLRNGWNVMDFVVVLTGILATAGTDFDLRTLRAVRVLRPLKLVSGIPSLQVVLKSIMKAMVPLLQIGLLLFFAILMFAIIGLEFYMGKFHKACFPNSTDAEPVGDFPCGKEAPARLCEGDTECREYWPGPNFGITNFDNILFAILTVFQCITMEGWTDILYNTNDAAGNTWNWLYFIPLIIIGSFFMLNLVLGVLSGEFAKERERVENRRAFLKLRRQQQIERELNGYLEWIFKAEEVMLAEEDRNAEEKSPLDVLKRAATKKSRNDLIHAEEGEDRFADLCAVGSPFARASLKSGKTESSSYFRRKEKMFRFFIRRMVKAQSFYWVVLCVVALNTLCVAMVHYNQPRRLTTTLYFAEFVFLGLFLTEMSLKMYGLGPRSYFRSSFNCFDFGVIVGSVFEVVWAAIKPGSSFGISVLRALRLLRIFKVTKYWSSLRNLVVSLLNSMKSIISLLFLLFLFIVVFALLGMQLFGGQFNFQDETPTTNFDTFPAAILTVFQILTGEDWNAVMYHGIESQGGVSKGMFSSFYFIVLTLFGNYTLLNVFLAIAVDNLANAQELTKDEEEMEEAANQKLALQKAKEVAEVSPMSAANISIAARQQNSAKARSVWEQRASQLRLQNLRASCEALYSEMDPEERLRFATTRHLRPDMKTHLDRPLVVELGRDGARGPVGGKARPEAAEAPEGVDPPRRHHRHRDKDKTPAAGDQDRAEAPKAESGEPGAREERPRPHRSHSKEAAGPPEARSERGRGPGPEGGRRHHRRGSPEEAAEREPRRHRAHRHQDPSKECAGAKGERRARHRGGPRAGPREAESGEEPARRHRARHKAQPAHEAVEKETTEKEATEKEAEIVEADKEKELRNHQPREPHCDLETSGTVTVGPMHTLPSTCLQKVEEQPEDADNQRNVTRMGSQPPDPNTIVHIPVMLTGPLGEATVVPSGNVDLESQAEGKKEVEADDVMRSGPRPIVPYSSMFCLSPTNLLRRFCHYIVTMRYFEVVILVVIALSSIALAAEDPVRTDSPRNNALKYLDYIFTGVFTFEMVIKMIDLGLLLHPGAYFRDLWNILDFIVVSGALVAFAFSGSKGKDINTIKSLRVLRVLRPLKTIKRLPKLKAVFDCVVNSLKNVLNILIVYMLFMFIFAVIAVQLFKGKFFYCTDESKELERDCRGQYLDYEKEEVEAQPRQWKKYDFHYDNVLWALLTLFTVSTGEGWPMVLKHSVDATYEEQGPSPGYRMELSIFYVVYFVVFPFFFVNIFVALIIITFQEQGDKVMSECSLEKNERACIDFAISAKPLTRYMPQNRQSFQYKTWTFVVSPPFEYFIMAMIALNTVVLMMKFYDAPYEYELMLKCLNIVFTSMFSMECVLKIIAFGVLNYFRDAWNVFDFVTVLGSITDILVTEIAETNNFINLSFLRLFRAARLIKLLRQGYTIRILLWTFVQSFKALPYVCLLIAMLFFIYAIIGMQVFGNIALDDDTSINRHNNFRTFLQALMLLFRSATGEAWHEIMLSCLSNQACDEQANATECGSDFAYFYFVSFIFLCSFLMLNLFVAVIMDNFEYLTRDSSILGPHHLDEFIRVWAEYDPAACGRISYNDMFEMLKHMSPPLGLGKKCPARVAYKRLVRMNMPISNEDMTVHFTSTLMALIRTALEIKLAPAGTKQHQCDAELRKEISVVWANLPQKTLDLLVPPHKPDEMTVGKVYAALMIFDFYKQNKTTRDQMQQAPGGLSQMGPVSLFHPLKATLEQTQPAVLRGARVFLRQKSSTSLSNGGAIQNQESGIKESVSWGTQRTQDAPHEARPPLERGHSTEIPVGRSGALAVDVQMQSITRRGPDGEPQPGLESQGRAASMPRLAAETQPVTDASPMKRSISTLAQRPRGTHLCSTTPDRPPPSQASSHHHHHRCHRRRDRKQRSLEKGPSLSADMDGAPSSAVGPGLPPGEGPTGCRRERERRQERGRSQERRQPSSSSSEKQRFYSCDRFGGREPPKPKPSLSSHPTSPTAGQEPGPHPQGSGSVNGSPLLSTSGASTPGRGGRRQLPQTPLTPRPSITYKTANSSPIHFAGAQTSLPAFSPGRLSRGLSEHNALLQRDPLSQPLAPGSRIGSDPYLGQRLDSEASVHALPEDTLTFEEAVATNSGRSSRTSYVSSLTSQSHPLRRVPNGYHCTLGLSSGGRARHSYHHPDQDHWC
Sequence of human Cav2.2 (P54289 25-951 partner limits assumed): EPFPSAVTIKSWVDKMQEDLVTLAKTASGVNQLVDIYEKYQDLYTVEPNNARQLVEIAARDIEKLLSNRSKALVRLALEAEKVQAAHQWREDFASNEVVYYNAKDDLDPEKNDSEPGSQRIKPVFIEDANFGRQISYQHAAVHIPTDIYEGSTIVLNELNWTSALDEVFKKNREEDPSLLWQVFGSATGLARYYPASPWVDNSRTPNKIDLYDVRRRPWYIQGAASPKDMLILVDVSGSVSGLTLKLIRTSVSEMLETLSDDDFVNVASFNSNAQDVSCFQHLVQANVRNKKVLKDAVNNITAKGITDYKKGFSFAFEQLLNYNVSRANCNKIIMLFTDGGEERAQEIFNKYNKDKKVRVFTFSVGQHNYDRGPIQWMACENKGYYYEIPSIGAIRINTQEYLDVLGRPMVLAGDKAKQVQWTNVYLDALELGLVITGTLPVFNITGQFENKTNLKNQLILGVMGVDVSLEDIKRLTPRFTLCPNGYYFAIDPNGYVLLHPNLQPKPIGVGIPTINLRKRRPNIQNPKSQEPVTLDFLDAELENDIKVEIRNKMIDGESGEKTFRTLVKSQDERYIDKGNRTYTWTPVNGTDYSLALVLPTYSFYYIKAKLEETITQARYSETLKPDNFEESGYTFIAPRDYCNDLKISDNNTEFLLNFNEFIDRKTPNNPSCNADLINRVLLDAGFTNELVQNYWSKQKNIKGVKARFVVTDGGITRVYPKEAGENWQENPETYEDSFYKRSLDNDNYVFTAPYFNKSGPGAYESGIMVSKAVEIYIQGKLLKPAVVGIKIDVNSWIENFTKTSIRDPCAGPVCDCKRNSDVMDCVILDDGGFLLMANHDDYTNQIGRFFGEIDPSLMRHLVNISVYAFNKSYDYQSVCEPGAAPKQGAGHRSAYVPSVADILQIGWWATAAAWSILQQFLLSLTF
Sequence of human Cav2.2 (P54289 952-1103 partner limits assumed): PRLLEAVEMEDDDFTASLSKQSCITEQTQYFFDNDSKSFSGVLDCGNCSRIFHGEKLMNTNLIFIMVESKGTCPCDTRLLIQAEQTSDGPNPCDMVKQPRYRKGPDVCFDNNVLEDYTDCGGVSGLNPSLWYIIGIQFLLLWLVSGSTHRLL
Sequence of human Cav2.2 (P54284 whole entry partner): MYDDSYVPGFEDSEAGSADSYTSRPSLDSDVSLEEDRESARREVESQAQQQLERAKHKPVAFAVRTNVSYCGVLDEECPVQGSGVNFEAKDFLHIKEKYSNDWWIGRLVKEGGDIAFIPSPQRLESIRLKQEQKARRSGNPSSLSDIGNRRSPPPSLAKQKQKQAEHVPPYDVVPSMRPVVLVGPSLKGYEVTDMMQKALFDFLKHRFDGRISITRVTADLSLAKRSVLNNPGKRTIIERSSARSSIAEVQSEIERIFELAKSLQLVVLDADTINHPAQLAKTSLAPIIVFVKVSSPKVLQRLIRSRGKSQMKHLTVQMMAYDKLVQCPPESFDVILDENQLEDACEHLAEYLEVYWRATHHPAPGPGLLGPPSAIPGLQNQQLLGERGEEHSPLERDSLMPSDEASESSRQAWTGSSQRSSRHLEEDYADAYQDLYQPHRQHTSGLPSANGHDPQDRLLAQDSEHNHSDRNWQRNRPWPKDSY

Compound	IC50 [nM]
O=C(CN1CCC(c2ccccc2)(c2ccccc2)C1=O)N1CCN(Cc2cccc(C(F)(F)F)c2)CC1 [Example 37, 1-(2-oxo-2-{4-[3-(trifluoromethyl)benzyl]piperazin-1-yl}ethyl)-3,3-diphenylpyrrolidin-2-one]	1030
CC(CNC(=O)CN1CCC(c2ccc(F)cc2)(c2ccc(F)cc2)C1=O)(c1ccccc1)c1ccccc1 [Example 59, 2-[3,3-bis(4-fluorophenyl)-2-oxopyrrolidin-1-yl]-N-(2,2-diphenylpropyl)acetamide]	2380
O=C(CN1CCC(c2ccc(F)cc2)(c2ccc(F)cc2)C1=O)N1CCC(c2ccccc2)(c2ccccc2)C1 [Example 61, 1-[2-(3,3-diphenylpyrrolidin-1-yl)-2-oxoethyl]-3,3-bis(4-fluorophenyl)pyrrolidin-2-one]	1310
O=C(CN1CCC(c2ccccc2)(c2ccccc2)C1=O)N1CCN(C(c2ccccc2)c2ccc(F)cc2)CC1 (stereo not shown) [Example 46, 1-(2-{4-[(4-fluorophenyl)(phenyl)methyl]piperazin-1-yl}-2-oxoethyl)-3,3-diphenylpyrrolidin-2-one]	450
O=C(CN1CCCC(c2ccccc2)(c2ccccc2)C1=O)N1CCC(c2ccccc2)(c2ccccc2)C1 [Example 174, 1-[2-(3,3-diphenylpyrrolidin-1-yl)-2-oxoethyl]-3,3-diphenylpiperidin-2-one]	2430
Cn1ccc(CNC(=O)CN2CCC(c3ccccc3)(c3ccccc3)C2=O)n1 [Example 4, N-[(1-methyl-1H-pyrazol-3-yl)methyl]-2-(2-oxo-3,3-diphenylpyrrolidin-1-yl)acetamide]	29800
O=C(CN1CCC(c2ccc(F)cc2)(c2ccc(F)cc2)C1=O)N1Cc2ccc(C(F)(F)F)cc2C1 [Example 228, 3,3-bis(4-fluorophenyl)-1-{2-oxo-2-[5-(trifluoromethyl)-1,3-dihydro-2H-isoindol-2-yl]ethyl}pyrrolidin-2-one]	1530
O=C(CN1CCC(c2ccc(F)cc2)(c2ccc(F)cc2)C1=O)N1CC2(CCN(Cc3ccccc3)CC2)C1 [Example 152, 1-[2-(7-benzyl-2,7-diazaspiro[3.5]non-2-yl)-2-oxoethyl]-3,3-bis(4-fluorophenyl)pyrrolidin-2-one]	730
CN(CCCN1CCCC(c2ccc(F)cc2)(c2ccc(F)cc2)C1=O)CCc1ccccc1 [Example 123, 3,3-bis(4-fluorophenyl)-1-{3-[methyl(2-phenylethyl)amino]propyl}piperidin-2-one]	1450
CC(C)COc1ccc(-c2noc(CN3CCCC(c4ccccc4)(c4ccccc4)C3=O)n2)cc1 [Example 209, 1-{[3-(4-isobutoxyphenyl)-1,2,4-oxadiazol-5-yl]methyl}-3,3-diphenylpiperidin-2-one]	10700
O=C1N(Cc2nc(-c3ccc(C(F)(F)F)cc3)no2)CCCC1(c1ccccc1)c1ccccc1 [Example 99, 3,3-diphenyl-1-({3-[4-(trifluoromethyl)phenyl]-1,2,4-oxadiazol-5-yl}methyl)piperidin-2-one]	8650
O=C(NC1CC1)c1cccc(S(=O)(=O)N2CCC(c3ccccc3)(c3ccccc3)C2=O)c1 [Example 150, N-cyclopropyl-3-[(2-oxo-3,3-diphenylpyrrolidin-1-yl)sulfonyl]benzamide]	860
COc1cccc(CCN(C)CCCN2CCCC(c3ccc(F)cc3)(c3ccc(F)cc3)C2=O)c1 [Example 121, 3,3-bis(4-fluorophenyl)-1-{3-[[2-(3-methoxyphenyl)ethyl](methyl)amino]propyl}piperidin-2-one]	1630
O=C1N(Cc2nc(-c3ccc(Cl)cc3)no2)CCCC1(c1ccccc1)c1ccccc1 [Example 170, 1-{[3-(4-chlorophenyl)-1,2,4-oxadiazol-5-yl]methyl}-3,3-diphenylpiperidin-2-one]	6700
O=C(CN1CCCC(c2ccccc2)(c2ccccc2)C1=O)N1CCOC(c2ccccc2)C1 (stereo not shown) [Example 70, 1-[2-oxo-2-(2-phenylmorpholin-4-yl)ethyl]-3,3-diphenylpiperidin-2-one]	7220
O=C(CN1CCC(c2ccccc2)(c2ccccc2)C1=O)N1CCc2ccccc2C1 [Example 19, 1-[2-(3,4-dihydroisoquinolin-2(1H)-yl)-2-oxoethyl]-3,3-diphenylpyrrolidin-2-one]	3310
O=C(CN1CCCC(c2ccccc2)(c2ccccc2)C1=O)N1CCC(C(O)(c2ccc(F)cc2)c2ccc(F)cc2)CC1 [Example 272, 1-(2-{4-[bis(4-fluorophenyl)(hydroxy)methyl]piperidin-1-yl}-2-oxoethyl)-3,3-diphenylpiperidin-2-one]	1960
O=C(CN1CCCC(c2ccc(F)cc2)(c2ccc(F)cc2)C1=O)N1CCN(Cc2cccc(C(F)(F)F)c2)CC1 [Example 175, 3,3-bis(4-fluorophenyl)-1-(2-oxo-2-{4-[3-(trifluoromethyl)benzyl]piperazin-1-yl}ethyl)piperidin-2-one]	1250
O=C1C(c2ccccc2)CCCN1Cc1nc(-c2ccc(C(F)(F)F)cc2)no1 (stereo not shown) [Example 181, 3-phenyl-1-({3-[4-(trifluoromethyl)phenyl]-1,2,4-oxadiazol-5-yl}methyl)piperidin-2-one]	3270

Now from value to molecule:

IC50 [nM]	Compound
2010	COc1ccc(C2(c3ccc(OC)cc3)CCCN(CCCN(C)CCCOc3cc(OC)cc(OC)c3)C2=O)cc1 [Example 116, 1-{3-[[3-(3,5-dimethoxyphenoxy)propyl](methyl)amino]propyl}-3,3-bis(4-methoxyphenyl)piperidin-2-one]
1770	O=C(CN1CCCC(c2ccc(F)cc2)(c2ccc(F)cc2)C1=O)N1CCC(c2ccccc2)(c2ccccc2)C1 [Example 172, 1-[2-(3,3-diphenylpyrrolidin-1-yl)-2-oxoethyl]-3,3-bis(4-fluorophenyl)piperidin-2-one]
5900	O=C(CN1CCCC(c2ccccc2)C1=O)N1CCN(Cc2cccc(C(F)(F)F)c2)CC1 (stereo not shown) [Example 93, 1-(2-oxo-2-{4-[3-(trifluoromethyl)benzyl]piperazin-1-yl}ethyl)-3-phenylpiperidin-2-one]
7550	O=C(CN1CCC(c2ccccc2)(c2ccccc2)C1=O)N1CCC(C(O)(c2cccc(C(F)(F)F)c2)c2cccc(C(F)(F)F)c2)CC1 [Example 33, 1-{2-[4-(hydroxy{bis[3-(trifluoromethyl)phenyl]}methyl)piperidin-1-yl]-2-oxoethyl}-3,3-diphenylpyrrolidin-2-one]
860	O=C(CN1CCC(c2ccc(F)cc2)(c2ccc(F)cc2)C1=O)N1CC2(CCN(Cc3ccc(C(F)(F)F)cc3)CC2)C1 [Example 153, 3,3-bis(4-fluorophenyl)-1-(2-oxo-2-{7-[4-(trifluoromethyl)benzyl]-2,7-diazaspiro[3.5]non-2-yl}ethyl)pyrrolidin-2-one]
1670	COc1cccc(CCN(C)CCN2CCCC(c3ccc(F)cc3)(c3ccc(F)cc3)C2=O)c1 [Example 120, 3,3-bis(4-fluorophenyl)-1-{2-[[2-(3-methoxyphenyl)ethyl](methyl)amino]ethyl}piperidin-2-one]
3370	O=C1N(Cc2nc(-c3ccc(C(F)(F)F)nc3)no2)CCCC1(c1ccccc1)c1ccccc1 [Example 177, 3,3-diphenyl-1-({3-[6-(trifluoromethyl)pyridin-3-yl]-1,2,4-oxadiazol-5-yl}methyl)piperidin-2-one]
9430	O=C(CN1CCC(c2ccc(F)cc2)C1=O)N1Cc2ccc(C(F)(F)F)cc2C1 (stereo not shown) [Example 216, 3-(4-fluorophenyl)-1-{2-oxo-2-[5-(trifluoromethyl)-1,3-dihydro-2H-isoindol-2-yl]ethyl}pyrrolidin-2-one]
5280	O=C(CN1CCC(c2ccccc2)(c2ccccc2)C1=O)NCc1ccc(C(F)(F)F)nc1 [Example 2, 2-(2-oxo-3,3-diphenylpyrrolidin-1-yl)-N-{[6-(trifluoromethyl)pyridin-3-yl]methyl}acetamide]
10100	O=C(CN1CCC(c2ccc(C(F)(F)F)cc2)C1=O)N1Cc2ccc(F)cc2C1 (stereo not shown) [Example 266, 1-[2-(5-fluoro-1,3-dihydro-2H-isoindol-2-yl)-2-oxoethyl]-3-[4-(trifluoromethyl)phenyl]pyrrolidin-2-one]
8070	COc1ccc2[nH]cc(C3=CCN(C(=O)CN4CCC(c5ccccc5)(c5ccccc5)C4=O)CC3)c2c1 [Example 35, 1-{2-[4-(5-methoxy-1H-indol-3-yl)-3,6-dihydropyridin-1(2H)-yl]-2-oxoethyl}-3,3-diphenylpyrrolidin-2-one]
1120	COc1cccc(CCN(C)CCCN2CCCC(c3cccc(OC)c3)(C(C)C)C2=O)c1 (stereo not shown) [Example 128, 3-isopropyl-3-(3-methoxyphenyl)-1-{3-[[2-(3-methoxyphenyl)ethyl](methyl)amino]propyl}piperidin-2-one]
2460	O=C(CN1CCC(c2ccc(F)cc2)(c2ccc(F)cc2)C1=O)Nc1cccc(C(F)(F)F)n1 [Example 226, 2-[3,3-bis(4-fluorophenyl)-2-oxopyrrolidin-1-yl]-N-[6-(trifluoromethyl)pyridin-2-yl]acetamide]
> 30000	O=C(CN1CCC(c2ccccc2)(c2ccccc2)C1=O)NCc1ncco1 [Example 168, N-(1,3-oxazol-2-ylmethyl)-2-(2-oxo-3,3-diphenylpyrrolidin-1-yl)acetamide]
2300	COc1ccc(C2(c3ccc(OC)cc3)CCCN(CCN3CCN(Cc4cc(OC)cc(OC)c4)CC3)C2=O)cc1 [Example 132, 1-{2-[4-(3,5-dimethoxybenzyl)piperazin-1-yl]ethyl}-3,3-bis(4-methoxyphenyl)piperidin-2-one]

— patent US8044069B2, “Compounds as calcium channel blockers” (Abbott Laboratories, priority 2008, dated 2011)
